A short description of one assay: cells. To be noted: Homo sapiens, DLD-1, 240 h.
Assay [1] concerns the target T1, helicase domain of the Pol θ protein (Homo sapiens, UniProt O75417).
T1 construct: The helicase domain of the Pol θ protein was purified from insect protein expression system; made in house; host or cells: insect protein expression system
Description: Biochemical Activity Assay (ADP Glo Assay) of Pol θ inhibitor, ATPase activity. On the technique in general: ADP-Glo first removes unused ATP, then detects ADP through luciferase.

Setting [2] is: read-out: Cell viability assay IC50 (nM), CTG assay, CellTiter Glo, read on Day 10, cell line not given.
Where [3] appears, read: ADP-Glo assay, ATPase activity of Pol θ helicase domain, ssDNA substrate, read-out: Biochemical assay IC50.
Where [4] appears, read: read-out: Cell viability assay IC50 (nM).
The mark [5] stands for this setting: read-out: Biochemical assay IC50.

Among the data in patent EP4585599A1, “NITROGEN-CONTAINING FUSED RING COMPOUND, INTERMEDIATE THEREOF, PREPARATION METHOD THEREFOR AND USE THEREOF” (Hangzhou Synrx Therapeutics Biomedical Technology Co., Ltd., priority 2022, dated 2024) are IC50 values, retold here.

Each structure is given as a SMILES string. Structures can show the parent of a compound that is named as a salt. Where two headings read alike, the source gives them in different places.

T1 sequence (O75417 102-554 limits assumed): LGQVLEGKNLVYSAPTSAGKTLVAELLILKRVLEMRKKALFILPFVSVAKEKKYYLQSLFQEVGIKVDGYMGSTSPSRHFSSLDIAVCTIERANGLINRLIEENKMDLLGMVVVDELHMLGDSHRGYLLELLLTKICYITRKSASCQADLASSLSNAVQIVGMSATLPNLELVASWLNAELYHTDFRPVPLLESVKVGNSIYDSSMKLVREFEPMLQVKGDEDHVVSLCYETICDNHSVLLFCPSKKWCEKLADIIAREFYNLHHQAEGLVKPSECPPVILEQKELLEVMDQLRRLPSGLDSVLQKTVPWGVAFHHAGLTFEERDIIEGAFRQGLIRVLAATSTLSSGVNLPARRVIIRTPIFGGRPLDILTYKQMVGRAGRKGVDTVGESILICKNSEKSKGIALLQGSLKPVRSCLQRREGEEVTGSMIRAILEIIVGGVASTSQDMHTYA

Turning to `COc1cnc(Cl)cc1-c1cc(C)ncc1C(=O)Nc1nc2cnc(-c3ccc(S(F)(F)(F)(F)F)cc3)cc2s1` [Example 188], the IC50 (usually the midpoint of a concentration-inhibition curve) in the assay “cells” (setting [2]) was less than 1.52 nM; in assay [1] (setting [3]) it was 36.7 nM.

In the case of `CCP(=O)(CC)c1ccc(-c2cc3sc(NC(=O)c4cnc(C)cc4-c4cc(Cl)ncc4OC)nc3cc2F)cc1` [Example 189], the half-inhibitory concentration (IC50) in “cells” (setting [2]) stood at 12.9 nM; in assay [1] (setting [3]), 8.06 nM.

Take `COc1cnc(Cl)cc1-c1cc(C)ncc1C(=O)Nc1nc2cc(F)c(-c3ccc(P4(=O)CCCC4)cc3)cc2s1` [Example 190]: the half-inhibitory concentration (IC50) in “cells” (setting [2]) turned out to be 3.28 nM; in assay [1] (setting [3]) it was 5.08 nM.

As for `COc1cnc(Cl)cc1-c1cc(C)ncc1C(=O)Nc1nc2c(s1)CN(C(=O)c1ccccc1)CC2` [Example 191, N-(5-benzoyl-4.5.6,7-tetrahydrothiazolo[5.4]pyridin-2-yl)-2'-chloro-5'-methoxy-6-methyl-[4,4'-bipyridine]-3-carboxamide], the half-inhibitory concentration (IC50) came to 521 nM in “cells” (setting [4]) and 29.3 nM in assay [1] (Biochemical assay IC50 (nM), ADP-Glo assay, ATPase activity of Pol θ helicase domain, ssDNA substrate).

For `COc1cnc(Cl)cc1-c1cc(C)ncc1C(=O)Nc1nc2c(s1)CN(Cc1ccncc1)CC2` [Example 192, 2'-chloro-5'-methoxy-6-methyl-N-(5-(pyridin-4-ylmethyl)-4,5,6,7-tetrahydrothiazolo[5,4-c]pyridin-2-yl)-[4,4'-bipyridine]-3-carboxamide], the values for the IC50 (in the assay “cells” (setting [2]); in assay [1] (setting [3])) were 4820 nM and 103 nM, respectively.

Turning to `COc1cnc(Cl)cc1-c1cc(C)ncc1C(=O)Nc1nc2cc3c(cc2s1)N(c1ccnn1C)CCO3` [Example 194, 2'-chloro-5'-methoxy-6-methyl-N-(8-(1-methyl-1H-parazol-5-yl)-7,8-dihydro-6H-thiazolo[5',4':4,5]benzo[1,2-b][1,4]oxazin-2-yl)-[4,4'-bipyridine]-3-carboxamide], the concentration for half-maximal inhibition (IC50) in the assay “cells” (setting [4]) was determined as 65.6 nM; in assay [1] (Biochemical assay IC50 (nM)), 22.9 nM.

Turning to `COc1cnc(Cl)cc1-c1cc(C)ncc1C(=O)Nc1nc2cnc(N3CCC(NS(C)(=O)=O)CC3)cc2s1` [Example 195], the IC50 in “cells” (setting [4]) was 34.2 nM; in assay [1] (Biochemical assay IC50 (nM)), 6.18 nM.

Consider `COc1cnc(Cl)cc1-c1cc(N2CCN(C)C3(CC3)C2=O)ncc1C(=O)Nc1nc2cnc(-c3c(C)nnn3C)cc2s1` [Example 196, 2'-chloro-N-(6-(1,4-dimethyl-1H-1,2,3-triazol-5-yl)thiazolo[4,5-c]pyridin-2-yl)-5'-methoxy-6-(4-methyl-8-oxo-4,7-diazaspiro[2.5]oct-7-yl)-[4,4'-bipyridine]-3-carboxamide], for which the figures for the IC50 (in “cells” (setting [2]); in assay [1] (setting [3])) were 3.83 nM and 11.7 nM, respectively.

As for `COc1cnc(C(F)F)cc1-c1cc(C)ncc1C(=O)Nc1nc2cnc(N3CCC(O)CC3)nc2s1` [Example 198], the IC50 in “cells” (setting [4]) came out at 23.3 nM; in assay [1] (setting [5]) it was 4.23 nM.

Turning to `COc1cnc(C(F)F)cc1-c1cc(C)ncc1C(=O)Nc1nc2cnc(N3CC4(CC(O)C4)C3)nc2s1` [Example 199], the IC50 in “cells” (setting [2]) was 31.6 nM; in assay [1] (setting [3]), 7.82 nM.

Turning to `COc1cnc(Cl)c(F)c1-c1cc(C)ncc1C(=O)Nc1nc2cnc(N3CCC(O)CC3)nc2s1` [Example 200], the IC50 in “cells” (setting [2]) was found to be 7.07 nM; in assay [1] (setting [3]) it was 6.51 nM.

With `COc1cnc(C(F)F)cc1-c1cc(C)ncc1C(=O)Nc1nc2cnc(N3CCCCC3=O)nc2s1` [Example 201, 2'-(difluoromethyl)-5'-methoxy-6-methyl-N-(5-(2-oxopiperidin-1-yl)thiazolo[5,4-d]pyrimidin-2-yl)-[4,4'-bipyridine]-3-carboxamide], the values for the half-maximal inhibitory concentration (IC50) (in “cells” (setting [2]); in assay [1] (setting [3])) were 224 nM and 5.24 nM, respectively.

For `COc1cnc(Cl)cc1-c1cc(C)ncc1C(=O)Nc1nc2ccc(N3CCOCC3=O)nc2s1` [Example 202], the IC50 in “cells” (setting [2]) was 38.8 nM; in assay [1] (setting [3]), 6.11 nM.

In the case of `COc1cnc(C(F)F)cc1-c1cc(C)ncc1C(=O)Nc1nc2cnc(N3CCOCC3=O)nc2s1` [Example 204], the IC50 turned out to be 541 nM in “cells” (setting [2]) and 8.57 nM in assay [1] (setting [3]).

Regarding `COc1cnc(Cl)cc1-c1cc(C)ncc1C(=O)Nc1nc2cnc(-c3ncco3)cc2s1` [Example 205, 2'-chloro-5'-methoxy-6-methyl-N-(6-(oxazol-2-yl)thiazolo[4,5-c]pyridin-2-yl)-[4,4'-bipyridine]-3-carboxamide], the concentration for half-maximal inhibition (IC50) in the assay “cells” (setting [2]) was 20 nM; in assay [1] (setting [3]) it was 5.24 nM.

Turning to `COc1cnc(Cl)cc1-c1cc(C)ncc1C(=O)Nc1nc2cnc(-c3nnc(C)o3)cc2s1` [Example 206], the IC50 in the assay “cells” (setting [2]) is 13.6 nM; in assay [1] (setting [3]), 2.36 nM.

Consider `COc1cnc(Cl)cc1-c1cc(C)ncc1C(=O)Nc1nc2cnc(-c3nnnn3C)cc2s1` [Example 208], for which the figures for the half-inhibitory concentration (IC50) (in the assay “cells” (setting [2]); in assay [1] (setting [3])) were 141 nM and 36.3 nM, respectively.

`COc1cnc(Cl)cc1-c1cc(C)ncc1C(=O)Nc1nc2cnc(-c3nnn(C)n3)cc2s1` [Example 209]: the 50% inhibitory concentration (IC50) in the assay “cells” (setting [2]) amounted to 6.82 nM; in assay [1] (setting [3]), 1.93 nM.

With `COc1cnc(Cl)c(F)c1-c1cc(C)ncc1C(=O)Nc1nc2cnc(-c3c(C)cnn3C)cc2s1` [Example 210], the IC50 is less than 1.52 nM in the assay “cells” (setting [2]) and 2.43 nM in assay [1] (setting [3]).

For `COc1cnc(Cl)c(F)c1-c1cc(C)ncc1C(=O)Nc1nc2cnc(-c3c(C)noc3C)cc2s1` [Example 211], the IC50 in the assay “cells” (setting [2]) was 3.28 nM; in assay [1] (setting [3]), 2.51 nM.

Regarding `COc1cnc(Cl)cc1-c1cc(C)ncc1C(=O)Nc1nc2cnc(-c3c(C)cnn3C(C)C)cc2s1` [Example 212], the IC50 was 2.23 nM in “cells” (setting [2]) and 3.48 nM in assay [1] (setting [3]).

With `COc1cnc(C(F)F)cc1-c1cc(C)ncc1C(=O)Nc1nc2cnc(-c3c(C)nnn3C3CC3)cc2s1` [Example 213, N-(6-(1-cyclopropyl-4-methyl-1H-1,2,3-triazol-5-yl)thiazolo[4,5-c]pyridin-2-yl)-2'-(difluoromethyl)-5'-methoxy-6-methyl-[4,4'-bipyridine]-3-carboxamide], the values for the IC50 (in “cells” (setting [2]); in assay [1] (setting [3])) were 4.13 nM and 3.63 nM, respectively.

Take `COc1cnc(Cl)cc1-c1cc(C)ncc1C(=O)Nc1nc2cnc(-c3c(C)nnn3C3CC3)cc2s1` [Example 214]: the concentration for half-maximal inhibition (IC50) in “cells” (setting [4]) was 27 nM; in assay [1] (setting [5]) it was 6.71 nM.

As for `COc1cnc(C(F)F)cc1-c1cc(C)ncc1C(=O)Nc1nc2cnc(-c3c(C)nnn3C)c(F)c2s1` [Example 215, 2'-(difluoromethyl)-N-(6-(1,4-dimethyl-1H-1,2,3-triazol-5-yl)-7-fluorothiazolo[4,5-c]pyridin-2-yl)-5'-methoxy-6-methyl-[4,4'-bipyridine]-3-carboxamide], the IC50 in “cells” (setting [2]) was found to be 2.92 nM; in assay [1] (setting [3]), 3.11 nM.

Turning to `COc1cnc(C(F)F)cc1-c1cc(C)ncc1C(=O)Nc1nc2cnc(-c3nncn3C)cc2s1` [Example 218], the IC50 in “cells” (setting [4]) stood at 656 nM; in assay [1] (Biochemical assay IC50 (nM)) it was 31.1 nM.

Turning to `COc1cnc(Cl)cc1-c1cc(C)ncc1C(=O)Nc1nc2cnc(-c3c(C)cnn3CCN(C)C)cc2s1` [Example 219, 2'-chloro-N-(6-(1-(2-(dimethylamino)ethyl)-4-methyl-1H-parazol-5-yl)thiazolo[4,5-c]pyridin-2-yl)-5'-methoxy-6-methyl-[4.4'-bipyridine]-3-carboxamide trifluoroacetate], the concentration for half-maximal inhibition (IC50) in the assay “cells” (setting [4]) turned out to be 63.1 nM; in assay [1] (Biochemical assay IC50 (nM)), 3.31 nM.

In the case of `COc1cnc(Cl)cc1-c1cc(C)ncc1C(=O)Nc1nc2cnc(-c3c(C)cnn3CCO)cc2s1` [Example 220], the results for the 50% inhibitory concentration (IC50) (in the assay “cells” (setting [2]); in assay [1] (setting [3])) were 22.2 nM and 2.51 nM, respectively.

In the case of `COc1cnc(Cl)cc1-c1cc(C)ncc1C(=O)Nc1nc2cnc(-c3nn(CCO)cc3C)cc2s1` [Example 221], the IC50 in the assay “cells” (setting [2]) turned out to be 1850 nM; in assay [1] (setting [3]), 4.78 nM.

On to `COc1cnc(Cl)cc1-c1cc(C)ncc1C(=O)Nc1nc2ccc(-c3c(C)nnn3C)cc2s1` [Example 222, 2'-chloro-N-(6-(1,4-dimethyl-1H-1,2,3-triazol-5-yl)benzo[d]lthiazol-2-yl)-5'-methoxy-6-methyl-[4.4'-bipyridine]-3-carboxamide], for which the values for the half-inhibitory concentration (IC50) (in the assay “cells” (setting [4]); in assay [1] (Biochemical assay IC50 (nM))) were 9.62 nM and 4.36 nM, respectively.

Regarding `COc1cnc(C(F)F)cc1-c1cc(C)ncc1C(=O)Nc1nc2ccc(-c3c(C)nnn3C)cc2s1` [Example 223], the concentration for half-maximal inhibition (IC50) in the assay “cells” (setting [2]) worked out at 10 nM; in assay [1] (setting [3]) it was 2.51 nM.

With `COc1cnc(Cl)c(F)c1-c1cc(C)ncc1C(=O)Nc1nc2ccc(-c3c(C)nnn3C)cc2s1` [Example 224], the concentration for half-maximal inhibition (IC50) in “cells” (setting [2]) was 3.16 nM; in assay [1] (setting [3]) it was 3.98 nM.

Turning to `COc1cnc(Cl)cc1-c1cc(C)ncc1C(=O)Nc1nc2cc3c(cc2s1)C(=O)N(C)CCC3` [Example 225, 2'-chloro-5'-methoxy-6-methyl-N-(6-methyl-5-oxo-6,7,8,9-tetrahydro-5H-thiazolo[4',5': 4,5]benzo[1,2-c]aza-2-yl)-[4,4'-bipyridine]-3-carboxamide], the IC50 in “cells” (setting [4]) amounted to 56.2 nM; in assay [1] (Biochemical assay IC50 (nM)) it was 21.1 nM.

For `COc1cnc(Cl)cc1-c1cc(C)ncc1C(=O)Nc1nc2cnc(-c3c(C(F)F)nnn3C)cc2s1` [Example 226, 2'-chloro-N-(6-(4-(difluoromethyl)-1-methyl-1H-1,2,3-triazol-5-yl)thiazolo[4,5-c]pyridin-2-yl)-5'-methoxv-6-methyl-[4.4'-bipyridine]-3-carboxamide], the results for the 50% inhibitory concentration (IC50) (in the assay “cells” (setting [4]); in assay [1] (Biochemical assay IC50 (nM))) were 8.46 nM and 4.02 nM, respectively.

For the molecule `COc1cnc(Cl)cc1-c1cc(C)ncc1C(=O)Nc1nc2cc(F)c(-c3c(C)nnn3C)nc2s1` [Example 227, 2'-chloro-N-(5-(1,4-dimethyl-1H-1,2,3-triazol-5-yl)-6-fluorothiazolo[5,4-b]pyridin-2-yl) -5'-methoxy-6-methyl-[4,4'-bipyridine]-3-carboxamide], the results for the concentration for half-maximal inhibition (IC50) (in the assay “cells” (setting [2]); in assay [1] (setting [3])) were 112 nM and 20.7 nM, respectively.
